Consider 2 compounds from patent US20210171464A1 (OLON S.P.A., priority 2017, published 2021).

Data set [1] can be described thus: exposure to atmospheric humidity (stability, hygroscopicity). The format is physicochemical.
Data set [2] concerns dopamine receptors. As to conditions: cited from earlier work.

For the compound `CC(C)COc1ccc(CNC(=O)N(Cc2ccc(F)cc2)C2CCN(C)CC2)cc1.CC(C)COc1ccc(CNC(=O)N(Cc2ccc(F)cc2)C2CCN(C)CC2)cc1.O=C(O)C(O)C(O)C(=O)O` [N-(4-fluorobenzyl)-N-(1-methylpiperidin-4-yl)-N′-(4-(2-methylpropyloxy)-phenylmethyl)carbamide hemitartrate], in data set [1], the hygroscopicity result is “not hygroscopic”. The “stability when exposed to atmospheric humidity” value in data set [1] (exposed to atmospheric humidity) is given as “stable”. Turning to “N-(4-fluorobenzyl)-N-(1-methylpiperidin-4-yl)-N′ -(4-(2-methyl-propyloxy)phenylmethyl)carbamide hemitartrate [pimavanserin hemitartrate]”, the “affinity for dopamine receptors” value in data set [2] is “no affinity”.
